For nine molecules, Kd results are on record in article PMC12774438, “CBL ubiquitin ligase targets translation as a degrader E3” (Chemical Science, 2025).

First the molecules themselves.
B1: eIFTerminator1-CBL binary complex (complex)
chain 1: KKRYSREFLLGFGGSGMTVEEMDSWIKSWDQM
chain 2: PPGTVDKKMVEKCWKLMDKVVRLCQNPKLALKNSPPYILDLLPDTYQHLRTILSRYEGKMETLGENEYFRVFMENLMKKTKQTISLFKEGKERMYEENSQPRRNLTKLSLIFSHMLAELKGIFPSGLFQGDTFRITKADAAEFWRKAFGEKTIVPWKSFRQALHEVHPISSGLEAMALKSTIDLTCNDYISVFEFDIFTRLFQPWSSLLRNWNSLAVTHPGYMAFLTYDEVKARLQKFIHKPGSYIFRLSCTRLGQWAIGYVTADGNILQTIPHNKPLFQALIDGFREGFYLFPDGRNQNPDLTGLCEPTPQDHIKVTQEQYELYCEMGSTFQLCKICAENDKDVKIEPCGHLMCTSCLTSWQESEGQGCPFCRCEIKGTEPIVVDPFD
B2: eIFTerminator3-CBL binary complex (complex)
chain 1: MTVEEMDSWIKSWDQMGGSGKKRYSREFLLGF
chain 2: PPGTVDKKMVEKCWKLMDKVVRLCQNPKLALKNSPPYILDLLPDTYQHLRTILSRYEGKMETLGENEYFRVFMENLMKKTKQTISLFKEGKERMYEENSQPRRNLTKLSLIFSHMLAELKGIFPSGLFQGDTFRITKADAAEFWRKAFGEKTIVPWKSFRQALHEVHPISSGLEAMALKSTIDLTCNDYISVFEFDIFTRLFQPWSSLLRNWNSLAVTHPGYMAFLTYDEVKARLQKFIHKPGSYIFRLSCTRLGQWAIGYVTADGNILQTIPHNKPLFQALIDGFREGFYLFPDGRNQNPDLTGLCEPTPQDHIKVTQEQYELYCEMGSTFQLCKICAENDKDVKIEPCGHLMCTSCLTSWQESEGQGCPFCRCEIKGTEPIVVDPFD
B3: eIFTerminator4-CBL binary complex (complex)
chain 1: MTVEEMDSWIKSWDQMGGSGGSGGSGKKRYSREFLLGF
chain 2: PPGTVDKKMVEKCWKLMDKVVRLCQNPKLALKNSPPYILDLLPDTYQHLRTILSRYEGKMETLGENEYFRVFMENLMKKTKQTISLFKEGKERMYEENSQPRRNLTKLSLIFSHMLAELKGIFPSGLFQGDTFRITKADAAEFWRKAFGEKTIVPWKSFRQALHEVHPISSGLEAMALKSTIDLTCNDYISVFEFDIFTRLFQPWSSLLRNWNSLAVTHPGYMAFLTYDEVKARLQKFIHKPGSYIFRLSCTRLGQWAIGYVTADGNILQTIPHNKPLFQALIDGFREGFYLFPDGRNQNPDLTGLCEPTPQDHIKVTQEQYELYCEMGSTFQLCKICAENDKDVKIEPCGHLMCTSCLTSWQESEGQGCPFCRCEIKGTEPIVVDPFD
B4: eIFTerminator2-CBL binary complex (complex)
chain 1: KKRYSREFLLGFGGSGGSGGSGMTVEEMDSWIKSWDQM
chain 2: PPGTVDKKMVEKCWKLMDKVVRLCQNPKLALKNSPPYILDLLPDTYQHLRTILSRYEGKMETLGENEYFRVFMENLMKKTKQTISLFKEGKERMYEENSQPRRNLTKLSLIFSHMLAELKGIFPSGLFQGDTFRITKADAAEFWRKAFGEKTIVPWKSFRQALHEVHPISSGLEAMALKSTIDLTCNDYISVFEFDIFTRLFQPWSSLLRNWNSLAVTHPGYMAFLTYDEVKARLQKFIHKPGSYIFRLSCTRLGQWAIGYVTADGNILQTIPHNKPLFQALIDGFREGFYLFPDGRNQNPDLTGLCEPTPQDHIKVTQEQYELYCEMGSTFQLCKICAENDKDVKIEPCGHLMCTSCLTSWQESEGQGCPFCRCEIKGTEPIVVDPFD

Where a SMILES comes first, the peptide text is derived from it.

T2 sequence (P06730 whole entry): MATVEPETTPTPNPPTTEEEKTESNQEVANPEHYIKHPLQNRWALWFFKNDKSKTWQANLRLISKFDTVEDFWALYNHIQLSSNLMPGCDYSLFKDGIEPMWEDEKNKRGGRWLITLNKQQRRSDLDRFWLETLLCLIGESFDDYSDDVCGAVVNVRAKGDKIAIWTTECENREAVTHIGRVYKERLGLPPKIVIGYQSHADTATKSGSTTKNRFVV

The target of the first experiment is T1, His-eIF4E (Homo sapiens, UniProt P06730).
T1 construct: made in house; host or cells: E. coli BL21(DE3) Gold
T1 sequence (P06730 whole entry): as above
Kind of experiment: SPR binary binding of peptides to immobilised His-eIF4E. The settings on record: 25°C, ligand His-eIF4E amine-coupled to CM5 chip, steady-state affinity, analyte 0.005859-0.75 µM, n = 3, mean ± SD. On the procedure: Supplementary Figure 4. Related to Table 2
A. Sensorgrams (left) and binding curves (right) showing a three-fold dilution series […]
over immobilised eIF4E. […]
(1 picture or pasted object on this page, not shown here) […]
Data were analysed by […] affinity analysis using Cytiva Biacore TM Insight Evaluation Software. Sensorgrams for figures were made using GraphPad Prism 9.5.1.
Studying the interactions between eIF4E and eIFTerminator1-4
His-eIF4E protein was immobilised on Cytiva’s sensor chip CM5 using amine-coupling. The chip was docked and primed in running buffer (50 mM HEPES pH 7.5, 100 mM NaCl, 1 mM TCEP, 0.05% Tween20). Cytiva’s amine-coupling kit was used to capture the ligand. Briefly, 0.4 M EDC and 0.1 M NHS from the kit were mixed 50:50 and injected to activate the chip surface for 300 s at 10 μL/min. His-eIF4E was prepared for amine coupling as described previously (15). After achieving a capture level of approximately 120 RU, the remaining binding sites were blocked with ethanolamine hydrochloride-NaOH (pH 8.5) from the kit for 420 s at a flow rate of 10 μL/min. Reference surfaces were prepared in duplicates […]
Multi-cycle experiments were performed to gain steady-state binding affinity of eIFTerminator1-4 to His-eIF4E. At a flow rate of 30 μL/min, 20 startups with a 30 s contact time and a 30 s dissociation time were done prior to sample injection. An 8-point, 1 in 2 dilution series of eIFTerminator1-4 or eIF4G1-D5S peptide was injected (0.005859 – 0.75 μM) with a 100 s contact time and a 250 s dissociation time at a flow rate of 30 μL/min. The peptides were dissolved in running buffer and filtered using Coster Spin-X 0.22 μM centrifuge tube filters as described above. […]
Usually Kd stands for a measure of binding affinity in units of concentration. Read a low Kd as a tighter complex. Regarding `CC(C)C[C@H](NC(=O)[C@H](CC(C)C)NC(=O)[C@H](Cc1ccccc1)NC(=O)[C@H](CCC(=O)O)NC(=O)[C@H](CCCNC(=N)N)NC(=O)[C@H](CO)NC(=O)[C@H](Cc1ccc(O)cc1)NC(=O)[C@H](CCCNC(=N)N)NC(=O)[C@H](CCCCN)NC(=O)[C@@H](N)CCCCN)C(=O)NCC(=O)N[C@@H](Cc1ccccc1)C(N)=O` [eIF4G1-D5S] (H-KKRYSREFLLGF-NH2), the Kd came out at 38.9 ± 6.5 nM.

On to `CC[C@H](C)[C@H](NC(=O)[C@H](Cc1c[nH]c2ccccc12)NC(=O)[C@H](CO)NC(=O)[C@H](CC(=O)O)NC(=O)[C@H](CCSC)NC(=O)[C@H](CCC(=O)O)NC(=O)[C@H](CCC(=O)O)NC(=O)[C@@H](NC(=O)[C@@H](NC(=O)[C@H](CCSC)NC(=O)CNC(=O)[C@H](CO)NC(=O)CNC(=O)CNC(=O)[C@H](Cc1ccccc1)NC(=O)CNC(=O)[C@H](CC(C)C)NC(=O)[C@H](CC(C)C)NC(=O)[C@H](Cc1ccccc1)NC(=O)[C@H](CCC(=O)O)NC(=O)[C@H](CCCNC(=N)N)NC(=O)[C@H](CO)NC(=O)[C@H](Cc1ccc(O)cc1)NC(=O)[C@H](CCCNC(=N)N)NC(=O)[C@H](CCCCN)NC(=O)[C@@H](N)CCCCN)[C@@H](C)O)C(C)C)C(=O)N[C@@H](CCCCN)C(=O)N[C@@H](CO)C(=O)N[C@@H](Cc1c[nH]c2ccccc12)C(=O)N[C@@H](CC(=O)O)C(=O)N[C@@H](CCC(N)=O)C(=O)N[C@@H](CCCNC(=N)N)C(N)=O` [eIFTerminator1] (H-KKRYSREFLLGFGGSGMTVEEMDSWIKSWDQR-NH2), for which binding was characterised by a dissociation constant (Kd) of 54 ± 9 nM.

For the molecule `CC[C@H](C)[C@H](NC(=O)[C@H](Cc1c[nH]c2ccccc12)NC(=O)[C@H](CO)NC(=O)[C@H](CC(=O)O)NC(=O)[C@H](CCSC)NC(=O)[C@H](CCC(=O)O)NC(=O)[C@H](CCC(=O)O)NC(=O)[C@@H](NC(=O)[C@@H](NC(=O)[C@@H](N)CCSC)[C@@H](C)O)C(C)C)C(=O)N[C@@H](CCCCN)C(=O)N[C@@H](CO)C(=O)N[C@@H](Cc1c[nH]c2ccccc12)C(=O)N[C@@H](CC(=O)O)C(=O)N[C@@H](CCC(N)=O)C(=O)N[C@@H](CCCNC(=N)N)C(=O)NCC(=O)NCC(=O)N[C@@H](CO)C(=O)NCC(=O)N[C@@H](CCCCN)C(=O)N[C@@H](CCCCN)C(=O)N[C@@H](CCCNC(=N)N)C(=O)N[C@@H](Cc1ccc(O)cc1)C(=O)N[C@@H](CO)C(=O)N[C@@H](CCCNC(=N)N)C(=O)N[C@@H](CCC(=O)O)C(=O)N[C@@H](Cc1ccccc1)C(=O)N[C@@H](CC(C)C)C(=O)N[C@@H](CC(C)C)C(=O)NCC(=O)N[C@@H](Cc1ccccc1)C(N)=O` [eIFTerminator2] (H-MTVEEMDSWIKSWDQRGGSGKKRYSREFLLGF-NH2), the Kd amounted to 67.5 ± 7.4 nM.

`CC[C@H](C)[C@H](NC(=O)[C@H](Cc1c[nH]c2ccccc12)NC(=O)[C@H](CO)NC(=O)[C@H](CC(=O)O)NC(=O)[C@H](CCSC)NC(=O)[C@H](CCC(=O)O)NC(=O)[C@H](CCC(=O)O)NC(=O)[C@@H](NC(=O)[C@@H](NC(=O)[C@H](CCSC)NC(=O)CNC(=O)[C@H](CO)NC(=O)CNC(=O)CNC(=O)[C@H](CO)NC(=O)CNC(=O)CNC(=O)[C@H](CO)NC(=O)CNC(=O)CNC(=O)[C@H](Cc1ccccc1)NC(=O)CNC(=O)[C@H](CC(C)C)NC(=O)[C@H](CC(C)C)NC(=O)[C@H](Cc1ccccc1)NC(=O)[C@H](CCC(=O)O)NC(=O)[C@H](CCCNC(=N)N)NC(=O)[C@H](CO)NC(=O)[C@H](Cc1ccc(O)cc1)NC(=O)[C@H](CCCNC(=N)N)NC(=O)[C@H](CCCCN)NC(=O)[C@@H](N)CCCCN)[C@@H](C)O)C(C)C)C(=O)N[C@@H](CCCCN)C(=O)N[C@@H](CO)C(=O)N[C@@H](Cc1c[nH]c2ccccc12)C(=O)N[C@@H](CC(=O)O)C(=O)N[C@@H](CCC(N)=O)C(=O)N[C@@H](CCCNC(=N)N)C(N)=O` [eIFTerminator3] (H-KKRYSREFLLGFGGSGGSGGSGMTVEEMDSWIKSWDQR-NH2) returned a Kd of 39.5 ± 3.4 nM.

`CC[C@H](C)[C@H](NC(=O)[C@H](Cc1c[nH]c2ccccc12)NC(=O)[C@H](CO)NC(=O)[C@H](CC(=O)O)NC(=O)[C@H](CCSC)NC(=O)[C@H](CCC(=O)O)NC(=O)[C@H](CCC(=O)O)NC(=O)[C@@H](NC(=O)[C@@H](NC(=O)[C@@H](N)CCSC)[C@@H](C)O)C(C)C)C(=O)N[C@@H](CCCCN)C(=O)N[C@@H](CO)C(=O)N[C@@H](Cc1c[nH]c2ccccc12)C(=O)N[C@@H](CC(=O)O)C(=O)N[C@@H](CCC(N)=O)C(=O)N[C@@H](CCCNC(=N)N)C(=O)NCC(=O)NCC(=O)N[C@@H](CO)C(=O)NCC(=O)NCC(=O)N[C@@H](CO)C(=O)NCC(=O)NCC(=O)N[C@@H](CO)C(=O)NCC(=O)N[C@@H](CCCCN)C(=O)N[C@@H](CCCCN)C(=O)N[C@@H](CCCNC(=N)N)C(=O)N[C@@H](Cc1ccc(O)cc1)C(=O)N[C@@H](CO)C(=O)N[C@@H](CCCNC(=N)N)C(=O)N[C@@H](CCC(=O)O)C(=O)N[C@@H](Cc1ccccc1)C(=O)N[C@@H](CC(C)C)C(=O)N[C@@H](CC(C)C)C(=O)NCC(=O)N[C@@H](Cc1ccccc1)C(N)=O` [eIFTerminator4] (H-MTVEEMDSWIKSWDQRGGSGGSGGSGKKRYSREFLLGF-NH2): binding was put at a Kd of 60.6 ± 8.5 nM.

The next experiment has as its target T2, His-eIF4E (UniProt P06730 1-217).
T2 construct: eukaryotic translation initiation factor 4E (eIF4E); Immobilised on the SPR chip; also called eukaryotic translation initiation factor 4E; source: recombinant
Kind of experiment: SPR; His-eIF4E immobilised; dilution series of eIFTerminator with a fixed, saturating concentration of CBL (1 µM) as analyte; steady-state affinities, ternary complex. The conditions noted are these: both partners purified. On the technique in general: SPR reads the build-up and loss of mass on a sensor chip optically.
On to B1, for which the dissociation constant (Kd) amounted to 77.8 nM.

With B2, the Kd stood at 81.8 nM.

B3 registered a Kd of 43.8 nM.

For the molecule B4, the Kd came out at 60.7 nM.
